According to patent US10906946B2, “Thrombin inhibitors” (priority 2015, dated 2021):
“And” between values parts separate entries of the source, which are not always exact repeats. Identical values can stand only once. Peptide text beside a SMILES is read from it.

Target: T1, human α-thrombin (Homo sapiens, UniProt P00734)
T1 construct: residues in the termini of the light chain; purchased Chemo-Sero-Therapeutic Research Institute (Kaketsuken, Japan), as a gift, not bought
Assay: Thrombin amidolytic activity assay with chromogenic substrate S2238
Assay type: biochemical
Settings: for Hill slope of thrombin amidolytic inhibition: 0 min pre-incubation where stated; for Hill Slope: Table 2
Protocol: Thrombin amidolytic activity assays for all peptides were performed in 96-wells microtiter plates in 50 mM Tris buffer (pH 7.4) containing 100 mM NaCl and 1 mg/ml bovine serum albumin. […] The rates of formation of p-nitroaniline were followed by measuring the absorbance at 405 nm for 10 min with a Tecan InfinitePro M200 microplate reader from Tecan (Männedorf, Switzerland). Dose-response curves were fitted using the GraphPad Prizm software (San Diego, Calif., USA) to calculate IC50 values and Hill coefficients. To measure the inhibitory constants, different concentrations of S2238 were used and the residual velocities were determined using the Morrison's tight binding equation. Inhibition of thrombin fibrinogenolytic activity of peptides were tested by measuring absorbance at 650 nm using a Sunrise microplate reader from Tecan (Männedorf, Switzerland) as described previously [Koh C Y, et al., J Biol Chem 282: 29101-13 (2007)]. The selectivity of avathrin was examined against 13 serine proteases (FIG. 5). Effects of avathrin on the amidolytic activities of these serine proteases were determined using respective chromogenic substrates. […] Avathrin (150 μM) was incubated with thrombin (5 μM), in 50 mM Tris buffer (pH 7.4) containing 150 mM NaCl and 1 mg/ml BSA. After different incubation times, reactions were quenched with 1% TFA (pH 1.8) and loaded onto a Jupiter Proteo column (4 μm, 90 Å, 100×1.0 mm) attached to a Dionex nano-HPLC system from Thermo Fisher Scientific (Waltham, Mass., USA) and eluted using an acetonitrile gradient with 0.05% TFA and 99.95% MilliQ water as eluent A and 0.05% TFA, 19.95% MilliQ water and 80% ACN as eluent B. Masses of all peaks were measured to identify cleavage products, which were subsequently quantified by integrating the peaks and calculating the area under the curves. To measure the effect of different pre-incubation times on the thrombin inhibitory activity, amidolytic assays were performed for various incubation times (up to 36 h).

[1] = IC50 of inhibition of thrombin amidolytic activity, thrombin 0.81 nM, S2238 100 μM, without pre-incubation (0 min) where stated
[2] = inhibitory constant Ki for thrombin, thrombin 0.81 nM, various S2238 concentrations

## CC[C@H](C)[C@H](NC(=O)[C@H](CC(=O)O)NC(=O)[C@H](CCC(=O)O)NC(=O)[C@H](Cc1ccccc1)NC(=O)[C@H](CC(=O)O)NC(=O)CNC(=O)CNC(=O)[C@H](CC(C)C)NC(=O)CNC(=O)[C@H](CCCCN)NC(=O)[C@H](CCCNC(=N)N)NC(=O)[C@H](CO)NC(=O)[C@H](CCSC)NC(=O)[C@H](CCCCN)NC(=O)[C@@H]1CCCN1C(=O)[C@@H](NC(=O)[C@H](C)NC(=O)[C@@H](NC(=O)[C@H](Cc1c[nH]cn1)NC(=O)[C@H](CC(=O)O)NC(=O)[C@H](CCC(=O)O)NC(=O)CNC(=O)[C@@H](N)CO)[C@@H](C)O)C(C)C)C(=O)N1CCC[C@H]1C(=O)N1CCC[C@H]1C(=O)N[C@@H](CCC(=O)O)C(=O)N[C@@H](C)C(=O)N[C@@H](Cc1ccc(O)cc1)C(=O)N[C@@H](CCC(=O)O)C(=O)N[C@@H](CCCNC(=N)N)C(=O)N[C@@H](C)C(=O)N[C@@H](CC(C)C)C(=O)N[C@@H](CCC(=O)O)C(=O)N[C@@H](C)C(=O)N[C@@H](CCCNC(=N)N)C(=O)O [Amblyomma americanum] (H-SGEDHTAVPKMSRKGLGGDFEDIPPEAYERALEAR-OH)
Affinity (nM), Table 4, Ki values
  Ki: 1.63 ± 0.61 nM
IC50 (nM), Table 4, members of variegin family
  IC50: 14.29 ± 0.12 nM

## CC[C@H](C)[C@H](NC(=O)[C@H](CCCCN)NC(=O)[C@@H]1CCCN1C(=O)[C@@H](NC(=O)[C@H](C)NC(=O)[C@@H](NC(=O)[C@H](CC(=O)O)NC(=O)[C@H](Cc1c[nH]cn1)NC(=O)CNC(=O)[C@H](CC(=O)O)NC(=O)[C@@H](N)CO)[C@@H](C)O)C(C)C)C(=O)N[C@@H](CO)C(=O)N[C@@H](CCCCN)C(=O)N[C@@H](CCC(N)=O)C(=O)NCC(=O)N[C@@H](CC(C)C)C(=O)NCC(=O)NCC(=O)N[C@@H](CC(=O)O)C(=O)N[C@@H](Cc1ccccc1)C(=O)N[C@@H](CCC(=O)O)C(=O)N[C@@H](CCC(=O)O)C(=O)N[C@H](C(=O)N1CCC[C@H]1C(=O)N[C@@H](CO)C(=O)N[C@@H](CC(=O)O)C(=O)N[C@@H](CCC(=O)O)C(=O)N[C@H](C(=O)N[C@H](C(=O)N[C@@H](CCC(=O)O)C(=O)O)[C@@H](C)CC)[C@@H](C)CC)[C@@H](C)CC [G2D, Q5D] (H-SDGHDTAVPKISKQGLGGDFEEIPSDEIIE-OH)
  fold drop in potency compared with avathrin: < 2 fold
  Hill slope of thrombin amidolytic inhibition: 0.71±0.03
  Hill Slope: 0.71 ± 0.03
[1]
  IC50: 13 ± 1.23 nM

## CC[C@H](C)[C@H](NC(=O)[C@H](CCCCN)NC(=O)[C@@H]1CCCN1C(=O)[C@@H](NC(=O)[C@H](C)NC(=O)[C@@H](NC(=O)[C@H](CCC(N)=O)NC(=O)[C@H](Cc1c[nH]cn1)NC(=O)CNC(=O)CNC(=O)[C@@H](N)CO)[C@@H](C)O)C(C)C)C(=O)N[C@@H](CO)C(=O)N[C@@H](CCCCN)C(=O)N[C@@H](CCC(N)=O)C(=O)NCC(=O)N1CCC[C@H]1C(=O)N1CCC[C@H]1C(=O)NCC(=O)N[C@@H](CC(=O)O)C(=O)N[C@@H](Cc1ccccc1)C(=O)N[C@@H](CCC(=O)O)C(=O)N[C@@H](CCC(=O)O)C(=O)N[C@H](C(=O)N1CCC[C@H]1C(=O)N[C@@H](CO)C(=O)N[C@@H](CC(=O)O)C(=O)N[C@@H](CCC(=O)O)C(=O)N[C@H](C(=O)N[C@H](C(=O)N[C@@H](CCC(=O)O)C(=O)O)[C@@H](C)CC)[C@@H](C)CC)[C@@H](C)CC [L16P, G17P] (H-SGGHQTAVPKISKQGPPGDFEEIPSDEIIE-OH)
  fold drop in potency compared with avathrin: > 25 fold
  Hill slope of thrombin amidolytic inhibition: 0.54±0.02
  Hill Slope: 0.54 ± 0.02
[1]
  IC50: 181 ± 3.76 nM

## CC[C@H](C)[C@H](NC(=O)[C@H](CCCCN)NC(=O)[C@@H]1CCCN1C(=O)[C@@H](NC(=O)[C@H](C)NC(=O)[C@@H](NC(=O)[C@H](CCC(N)=O)NC(=O)[C@H](Cc1c[nH]cn1)NC(=O)CNC(=O)CNC(=O)[C@@H](N)CO)[C@@H](C)O)C(C)C)C(=O)N[C@@H](C)C(=O)N[C@@H](CCCCN)C(=O)N[C@@H](CCC(N)=O)C(=O)NCC(=O)N[C@@H](CC(C)C)C(=O)NCC(=O)NCC(=O)N[C@@H](CC(=O)O)C(=O)N[C@@H](Cc1ccccc1)C(=O)N[C@@H](CCC(=O)O)C(=O)N[C@@H](CCC(=O)O)C(=O)N[C@H](C(=O)N1CCC[C@H]1C(=O)N[C@@H](CO)C(=O)N[C@@H](CC(=O)O)C(=O)N[C@@H](CCC(=O)O)C(=O)N[C@H](C(=O)N[C@H](C(=O)N[C@@H](CCC(=O)O)C(=O)O)[C@@H](C)CC)[C@@H](C)CC)[C@@H](C)CC [Peptide S12A] (H-SGGHQTAVPKIAKQGLGGDFEEIPSDEIIE-OH; N-terminus and C-terminus assumed)
  fold drop in potency compared with avathrin: > 10 fold and 20 fold
  Hill slope of thrombin amidolytic inhibition: 0.62±0.01
  Hill Slope: 0.62 ± 0.01
[1]
  IC50: 101 ± 1.32 nM
[2]
  Ki: 6.07 ± 0.18 nM

## CC[C@H](C)[C@H](NC(=O)[C@H](CCCCN)NC(=O)[C@@H]1CCCN1C(=O)[C@@H](NC(=O)[C@H](C)NC(=O)[C@@H](NC(=O)[C@H](CCC(N)=O)NC(=O)[C@H](Cc1c[nH]cn1)NC(=O)CNC(=O)CNC(=O)[C@@H](N)CO)[C@@H](C)O)C(C)C)C(=O)N[C@@H](Cc1c[nH]cn1)C(=O)N[C@@H](CCCCN)C(=O)N[C@@H](CCC(N)=O)C(=O)NCC(=O)N[C@@H](CC(C)C)C(=O)NCC(=O)NCC(=O)N[C@@H](CC(=O)O)C(=O)N[C@@H](Cc1ccccc1)C(=O)N[C@@H](CCC(=O)O)C(=O)N[C@@H](CCC(=O)O)C(=O)N[C@H](C(=O)N1CCC[C@H]1C(=O)N[C@@H](CO)C(=O)N[C@@H](CC(=O)O)C(=O)N[C@@H](CCC(=O)O)C(=O)N[C@H](C(=O)N[C@H](C(=O)N[C@@H](CCC(=O)O)C(=O)O)[C@@H](C)CC)[C@@H](C)CC)[C@@H](C)CC [Peptide S12H] (H-SGGHQTAVPKIHKQGLGGDFEEIPSDEIIE-OH; N-terminus and C-terminus assumed)
  fold drop in potency compared with avathrin: 2 fold
  Hill slope of thrombin amidolytic inhibition: 0.88±0.02
  Hill Slope: 0.88 ± 0.02
[1]
  IC50: 18.5 ± 0.32 nM
[2]
  Ki: 1.23 ± 0.04 nM

## CC[C@H](C)[C@H](NC(=O)[C@H](C)NC(=O)[C@H](CC(=O)O)NC(=O)[C@H](CC(=O)O)NC(=O)[C@@H]1CCCN1C(=O)[C@@H](NC(=O)[C@H](CCC(=O)O)NC(=O)[C@H](CCC(=O)O)NC(=O)[C@H](Cc1ccccc1)NC(=O)[C@H](CC(=O)O)NC(=O)CNC(=O)[C@@H]1CCCN1C(=O)[C@@H]1CCCN1C(=O)[C@H](C)NC(=O)[C@@H](NC(=O)[C@H](CO)NC(=O)[C@H](Cc1ccc(O)cc1)NC(=O)[C@H](CCSC)NC(=O)[C@H](CCCCN)NC(=O)[C@@H]1CCCN1C(=O)[C@@H](NC(=O)[C@H](C)NC(=O)[C@@H](NC(=O)[C@H](CC(=O)O)NC(=O)CNC(=O)[C@H](CCC(N)=O)NC(=O)[C@H](CC(=O)O)NC(=O)[C@@H](N)CO)C(C)C)[C@@H](C)CC)[C@@H](C)O)[C@@H](C)CC)C(=O)N[C@@H](CCC(=O)O)C(=O)N[C@@H](CCC(=O)O)C(=O)O [UV003] (H-SDQGDVAIPKMYSTAPPGDFEEIPDDAIEE-OH)
[1]
  IC50: 0.6 ± 0.2 nM
[2]
  Ki: 0.00421 ± 0.00096 nM
